# Biological target: DNA gyrase (Escherichia coli) (UniProt P0AES6+P0AES4)
# Experiment: In vitro activity against Escherichia coli DNA gyrase supercoiling
# Assay type: protein-complex assay
row,SMILES,MNEC [µM]
1,O=C1Nc2ccccc2/C1=C/c1cnc[nH]1,100
2,O=C1Nc2ccccc2/C1=N/c1ccc(C(F)(F)F)cc1,> 100
3,Cc1[nH]c2ccccc2c1/C=C1\C(=O)Nc2ccccc21,> 100
4,O=C1Nc2ccccc2/C1=C/c1c[nH]c2cc([N+](=O)[O-])ccc12,> 100
5,O=C(/N=N/c1c(O)[nH]c2ccc(Br)cc12)c1ccncc1,> 100
6,Cc1ccc2c(c1)/C(=N/N=C/c1c(O)ccc3ccccc13)C(=O)N2,> 100
7,CCc1nc(/C=C2\C(=O)Nc3ccccc32)c[nH]1,< 100
8,CCc1nc(C)c(/C=C2\C(=O)Nc3ccccc32)[nH]1,25
9,CCCCc1nc(/C=C2\C(=O)Nc3ccccc32)c[nH]1,50
10,O=C1Nc2ccccc2/C1=C/c1cccnc1,> 100
11,O=C1Nc2ccccc2/C1=C/c1ccccc1N1CCOCC1,> 100
12,O=C1N=C(N2CCOCC2)S/C1=C1\C(=O)Nc2ccccc21,> 100
13,O=C1Nc2ccccc2/C1=C/c1ccc([N+](=O)[O-])cc1,> 100
14,O=C1Nc2ccccc2/C1=C/c1c[nH]c(-c2ccccc2)n1,> 100
15,Oc1[nH]c2ccccc2c1/N=N/c1n[nH]c2c3ccccc3nc-2n1,> 100
16,O=C1Nc2ccccc2/C1=C/c1c[nH]nc1-c1cccs1,> 100
